Measured values as given in ChEMBL document CHEMBL5291721, “A preclinical secondary pharmacology resource illuminates target-adverse drug reaction associations of marketed drugs” (Nat Commun, 2023).

Legend:
Bile salt export pump = Bile salt export pump (Homo sapiens, UniProt O95342); format: functional
[1] = molecular target: T1, 5-hydroxytryptamine receptor 1A (Homo sapiens, UniProt P08908)
T1 sequence (P08908 whole entry): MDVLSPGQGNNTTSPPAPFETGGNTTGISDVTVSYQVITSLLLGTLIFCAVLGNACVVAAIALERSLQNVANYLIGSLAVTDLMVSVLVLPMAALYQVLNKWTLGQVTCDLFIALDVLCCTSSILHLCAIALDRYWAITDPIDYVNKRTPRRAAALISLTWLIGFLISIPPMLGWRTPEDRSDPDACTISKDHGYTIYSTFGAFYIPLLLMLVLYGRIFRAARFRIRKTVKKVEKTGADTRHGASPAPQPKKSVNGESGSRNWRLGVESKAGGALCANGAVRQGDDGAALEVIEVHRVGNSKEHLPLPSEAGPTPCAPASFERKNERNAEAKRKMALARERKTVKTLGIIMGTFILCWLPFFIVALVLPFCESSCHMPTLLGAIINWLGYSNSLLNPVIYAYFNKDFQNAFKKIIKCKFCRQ

D(1A) dopamine receptor = D(1A) dopamine receptor (Homo sapiens, UniProt P21728)
[2] = molecular target: Sodium-dependent dopamine transporter (Homo sapiens, UniProt Q01959)
[3] = molecular target: T2, Prostaglandin G/H synthase 1 (Homo sapiens, UniProt P23219); format: functional
Prothrombin = Prothrombin (Homo sapiens, UniProt P00734); format: functional
[4] = molecular target: T2, Prostaglandin G/H synthase 1; format: functional; remark: listed apart in the source
Mu-type opioid receptor = Mu-type opioid receptor (Homo sapiens, UniProt P35372)
[5] = molecular target: cGMP-inhibited 3',5'-cyclic phosphodiesterase 3A (Homo sapiens, UniProt Q14432); format: functional
Acetylcholinesterase = Acetylcholinesterase (Homo sapiens, UniProt P22303); format: functional
[6] = molecular target: 5-hydroxytryptamine receptor 2B (Homo sapiens, UniProt P41595); format: functional, cell-based
[7] = molecular target: T3, Alpha-2A adrenergic receptor (Homo sapiens, UniProt P08913)
T3 sequence (P08913 whole entry): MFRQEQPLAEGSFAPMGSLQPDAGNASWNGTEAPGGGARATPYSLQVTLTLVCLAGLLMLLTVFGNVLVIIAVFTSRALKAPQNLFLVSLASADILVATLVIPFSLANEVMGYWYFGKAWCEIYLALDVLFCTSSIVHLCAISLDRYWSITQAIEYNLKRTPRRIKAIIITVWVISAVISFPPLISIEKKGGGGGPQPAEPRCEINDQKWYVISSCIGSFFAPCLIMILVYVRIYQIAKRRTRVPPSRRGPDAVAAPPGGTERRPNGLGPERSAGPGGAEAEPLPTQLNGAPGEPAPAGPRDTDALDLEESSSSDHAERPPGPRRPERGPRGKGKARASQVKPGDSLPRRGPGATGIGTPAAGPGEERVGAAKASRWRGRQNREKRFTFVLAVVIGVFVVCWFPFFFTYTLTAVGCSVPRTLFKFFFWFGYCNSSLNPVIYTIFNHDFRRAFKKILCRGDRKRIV

Thromboxane A2 receptor [8] = molecular target: T4, Thromboxane A2 receptor (Homo sapiens, UniProt P21731); format: functional, cell-based
T4 sequence (P21731 whole entry): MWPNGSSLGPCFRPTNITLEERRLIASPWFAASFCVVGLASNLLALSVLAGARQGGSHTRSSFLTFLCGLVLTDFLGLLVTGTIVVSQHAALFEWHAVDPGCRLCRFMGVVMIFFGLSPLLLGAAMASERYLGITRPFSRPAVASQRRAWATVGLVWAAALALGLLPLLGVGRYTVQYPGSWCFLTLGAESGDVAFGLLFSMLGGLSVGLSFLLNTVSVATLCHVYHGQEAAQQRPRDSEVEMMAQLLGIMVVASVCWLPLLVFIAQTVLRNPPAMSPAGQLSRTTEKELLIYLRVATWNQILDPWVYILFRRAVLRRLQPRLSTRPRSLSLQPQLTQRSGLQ

[9] = molecular target: 3',5'-cyclic-AMP phosphodiesterase 4A (Homo sapiens, UniProt P27815); format: functional
D(3) dopamine receptor = D(3) dopamine receptor (Homo sapiens, UniProt P35462)
[10] = molecular target: Sodium-dependent noradrenaline transporter (Homo sapiens, UniProt P23975)
[11] = molecular target: T5, Amine oxidase [flavin-containing] A (Homo sapiens, UniProt P21397); format: functional
T5 sequence (P21397 whole entry): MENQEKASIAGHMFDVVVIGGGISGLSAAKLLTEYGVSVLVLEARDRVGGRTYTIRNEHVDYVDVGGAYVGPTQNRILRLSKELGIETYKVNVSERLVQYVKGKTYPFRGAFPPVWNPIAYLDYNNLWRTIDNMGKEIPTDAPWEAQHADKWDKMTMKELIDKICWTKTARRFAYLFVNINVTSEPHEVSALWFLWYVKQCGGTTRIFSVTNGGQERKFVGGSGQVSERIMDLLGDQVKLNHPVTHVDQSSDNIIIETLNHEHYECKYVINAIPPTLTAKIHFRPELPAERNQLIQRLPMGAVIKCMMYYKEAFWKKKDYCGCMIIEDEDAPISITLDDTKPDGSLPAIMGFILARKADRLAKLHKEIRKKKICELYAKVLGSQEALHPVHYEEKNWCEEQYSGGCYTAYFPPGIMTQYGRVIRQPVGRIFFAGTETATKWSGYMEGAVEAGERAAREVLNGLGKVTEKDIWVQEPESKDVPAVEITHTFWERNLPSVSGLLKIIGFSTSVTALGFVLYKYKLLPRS

Thromboxane A2 receptor [12] = molecular target: T4, Thromboxane A2 receptor; format: functional, cell-based; remark: listed apart in the source
Further: assay procedure not described here.

Acetylcholinesterase, sequence (P22303 whole entry): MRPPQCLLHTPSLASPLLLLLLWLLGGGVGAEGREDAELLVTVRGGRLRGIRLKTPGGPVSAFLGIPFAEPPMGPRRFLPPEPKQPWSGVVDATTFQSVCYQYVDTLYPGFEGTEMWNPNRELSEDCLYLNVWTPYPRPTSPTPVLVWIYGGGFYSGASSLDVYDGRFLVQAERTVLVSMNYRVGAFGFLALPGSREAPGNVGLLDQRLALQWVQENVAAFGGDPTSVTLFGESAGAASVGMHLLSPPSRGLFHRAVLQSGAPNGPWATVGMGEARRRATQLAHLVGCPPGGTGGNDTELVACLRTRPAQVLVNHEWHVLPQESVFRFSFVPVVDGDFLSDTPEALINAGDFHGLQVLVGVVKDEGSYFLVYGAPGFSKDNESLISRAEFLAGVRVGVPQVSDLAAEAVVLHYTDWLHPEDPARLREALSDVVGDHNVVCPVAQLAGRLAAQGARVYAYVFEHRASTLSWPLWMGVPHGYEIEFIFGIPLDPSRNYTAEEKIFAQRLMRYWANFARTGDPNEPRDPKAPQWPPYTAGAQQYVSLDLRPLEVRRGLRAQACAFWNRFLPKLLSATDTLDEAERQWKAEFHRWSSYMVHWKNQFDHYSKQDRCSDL
Sodium-dependent dopamine transporter, sequence (Q01959 whole entry): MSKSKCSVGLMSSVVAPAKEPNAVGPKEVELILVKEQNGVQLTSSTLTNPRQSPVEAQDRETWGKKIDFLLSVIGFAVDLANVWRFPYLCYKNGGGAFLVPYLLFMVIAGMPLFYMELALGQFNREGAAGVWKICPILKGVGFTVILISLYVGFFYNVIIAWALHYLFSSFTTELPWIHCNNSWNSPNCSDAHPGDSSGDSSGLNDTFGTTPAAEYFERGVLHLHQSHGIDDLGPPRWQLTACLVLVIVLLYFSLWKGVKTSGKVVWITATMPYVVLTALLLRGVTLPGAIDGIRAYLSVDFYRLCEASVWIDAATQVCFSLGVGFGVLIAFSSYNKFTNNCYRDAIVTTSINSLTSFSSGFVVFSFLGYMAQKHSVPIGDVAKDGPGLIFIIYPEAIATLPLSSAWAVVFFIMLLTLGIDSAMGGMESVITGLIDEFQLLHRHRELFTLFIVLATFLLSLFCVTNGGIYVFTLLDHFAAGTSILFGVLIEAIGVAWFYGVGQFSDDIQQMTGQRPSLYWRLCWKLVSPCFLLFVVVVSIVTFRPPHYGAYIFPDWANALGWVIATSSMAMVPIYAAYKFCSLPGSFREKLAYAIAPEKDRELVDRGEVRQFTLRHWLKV
T2 sequence (P23219 whole entry): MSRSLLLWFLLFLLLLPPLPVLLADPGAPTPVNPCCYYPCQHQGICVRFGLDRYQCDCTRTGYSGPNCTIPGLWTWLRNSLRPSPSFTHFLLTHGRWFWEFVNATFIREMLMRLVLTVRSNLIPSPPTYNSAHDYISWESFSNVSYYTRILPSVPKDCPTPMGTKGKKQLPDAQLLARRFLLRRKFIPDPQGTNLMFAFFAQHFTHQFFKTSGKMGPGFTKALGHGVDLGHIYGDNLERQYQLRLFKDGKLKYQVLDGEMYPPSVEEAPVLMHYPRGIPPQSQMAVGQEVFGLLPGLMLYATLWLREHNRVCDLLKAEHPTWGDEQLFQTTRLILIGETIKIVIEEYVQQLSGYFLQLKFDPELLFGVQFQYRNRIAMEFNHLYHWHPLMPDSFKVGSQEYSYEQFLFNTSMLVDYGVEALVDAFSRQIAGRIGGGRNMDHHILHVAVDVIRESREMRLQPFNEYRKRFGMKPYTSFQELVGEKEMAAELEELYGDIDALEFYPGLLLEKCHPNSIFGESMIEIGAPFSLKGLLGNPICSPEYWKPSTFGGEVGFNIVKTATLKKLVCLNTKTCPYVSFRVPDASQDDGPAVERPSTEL
Sodium-dependent noradrenaline transporter, sequence (P23975 whole entry): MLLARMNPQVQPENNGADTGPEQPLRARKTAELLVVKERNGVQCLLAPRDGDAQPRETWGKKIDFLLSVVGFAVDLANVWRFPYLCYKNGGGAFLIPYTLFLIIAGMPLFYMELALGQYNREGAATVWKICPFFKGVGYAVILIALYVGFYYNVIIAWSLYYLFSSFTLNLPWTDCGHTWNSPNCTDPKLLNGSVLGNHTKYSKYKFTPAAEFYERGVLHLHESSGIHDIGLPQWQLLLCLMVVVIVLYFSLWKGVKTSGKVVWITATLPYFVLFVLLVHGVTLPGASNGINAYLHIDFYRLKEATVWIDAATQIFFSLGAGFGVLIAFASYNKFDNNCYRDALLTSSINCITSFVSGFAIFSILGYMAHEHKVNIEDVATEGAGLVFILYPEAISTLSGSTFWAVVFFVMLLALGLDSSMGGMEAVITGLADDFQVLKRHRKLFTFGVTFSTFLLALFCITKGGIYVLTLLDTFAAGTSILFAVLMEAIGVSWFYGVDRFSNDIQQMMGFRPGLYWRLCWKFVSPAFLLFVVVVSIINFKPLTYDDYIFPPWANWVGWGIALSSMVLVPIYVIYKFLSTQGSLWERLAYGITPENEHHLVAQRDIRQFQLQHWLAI
5-hydroxytryptamine receptor 2B, sequence (P41595 whole entry): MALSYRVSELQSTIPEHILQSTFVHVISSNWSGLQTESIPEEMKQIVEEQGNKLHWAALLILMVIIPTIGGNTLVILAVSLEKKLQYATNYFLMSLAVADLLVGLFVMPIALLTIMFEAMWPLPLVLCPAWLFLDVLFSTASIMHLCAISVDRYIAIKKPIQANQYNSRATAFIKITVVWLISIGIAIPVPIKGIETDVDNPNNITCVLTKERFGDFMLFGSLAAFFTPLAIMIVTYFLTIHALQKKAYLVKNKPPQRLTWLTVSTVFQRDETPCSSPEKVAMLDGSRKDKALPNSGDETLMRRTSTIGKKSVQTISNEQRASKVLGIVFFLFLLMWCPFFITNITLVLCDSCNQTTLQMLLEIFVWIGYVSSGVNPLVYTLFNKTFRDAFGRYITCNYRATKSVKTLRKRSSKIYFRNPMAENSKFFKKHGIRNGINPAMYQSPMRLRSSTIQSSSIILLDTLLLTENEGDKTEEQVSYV
Mu-type opioid receptor, sequence (P35372 whole entry): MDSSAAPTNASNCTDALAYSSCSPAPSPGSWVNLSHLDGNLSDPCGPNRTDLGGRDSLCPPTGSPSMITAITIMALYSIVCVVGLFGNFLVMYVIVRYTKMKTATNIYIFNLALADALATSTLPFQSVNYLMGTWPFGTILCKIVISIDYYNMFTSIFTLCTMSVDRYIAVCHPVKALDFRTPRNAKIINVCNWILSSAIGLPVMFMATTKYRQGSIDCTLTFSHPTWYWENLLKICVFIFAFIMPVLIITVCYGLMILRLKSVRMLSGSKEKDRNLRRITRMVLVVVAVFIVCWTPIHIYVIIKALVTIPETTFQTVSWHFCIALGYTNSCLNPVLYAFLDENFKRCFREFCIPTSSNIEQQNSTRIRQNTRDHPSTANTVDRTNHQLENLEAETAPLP
Bile salt export pump, sequence (O95342 whole entry): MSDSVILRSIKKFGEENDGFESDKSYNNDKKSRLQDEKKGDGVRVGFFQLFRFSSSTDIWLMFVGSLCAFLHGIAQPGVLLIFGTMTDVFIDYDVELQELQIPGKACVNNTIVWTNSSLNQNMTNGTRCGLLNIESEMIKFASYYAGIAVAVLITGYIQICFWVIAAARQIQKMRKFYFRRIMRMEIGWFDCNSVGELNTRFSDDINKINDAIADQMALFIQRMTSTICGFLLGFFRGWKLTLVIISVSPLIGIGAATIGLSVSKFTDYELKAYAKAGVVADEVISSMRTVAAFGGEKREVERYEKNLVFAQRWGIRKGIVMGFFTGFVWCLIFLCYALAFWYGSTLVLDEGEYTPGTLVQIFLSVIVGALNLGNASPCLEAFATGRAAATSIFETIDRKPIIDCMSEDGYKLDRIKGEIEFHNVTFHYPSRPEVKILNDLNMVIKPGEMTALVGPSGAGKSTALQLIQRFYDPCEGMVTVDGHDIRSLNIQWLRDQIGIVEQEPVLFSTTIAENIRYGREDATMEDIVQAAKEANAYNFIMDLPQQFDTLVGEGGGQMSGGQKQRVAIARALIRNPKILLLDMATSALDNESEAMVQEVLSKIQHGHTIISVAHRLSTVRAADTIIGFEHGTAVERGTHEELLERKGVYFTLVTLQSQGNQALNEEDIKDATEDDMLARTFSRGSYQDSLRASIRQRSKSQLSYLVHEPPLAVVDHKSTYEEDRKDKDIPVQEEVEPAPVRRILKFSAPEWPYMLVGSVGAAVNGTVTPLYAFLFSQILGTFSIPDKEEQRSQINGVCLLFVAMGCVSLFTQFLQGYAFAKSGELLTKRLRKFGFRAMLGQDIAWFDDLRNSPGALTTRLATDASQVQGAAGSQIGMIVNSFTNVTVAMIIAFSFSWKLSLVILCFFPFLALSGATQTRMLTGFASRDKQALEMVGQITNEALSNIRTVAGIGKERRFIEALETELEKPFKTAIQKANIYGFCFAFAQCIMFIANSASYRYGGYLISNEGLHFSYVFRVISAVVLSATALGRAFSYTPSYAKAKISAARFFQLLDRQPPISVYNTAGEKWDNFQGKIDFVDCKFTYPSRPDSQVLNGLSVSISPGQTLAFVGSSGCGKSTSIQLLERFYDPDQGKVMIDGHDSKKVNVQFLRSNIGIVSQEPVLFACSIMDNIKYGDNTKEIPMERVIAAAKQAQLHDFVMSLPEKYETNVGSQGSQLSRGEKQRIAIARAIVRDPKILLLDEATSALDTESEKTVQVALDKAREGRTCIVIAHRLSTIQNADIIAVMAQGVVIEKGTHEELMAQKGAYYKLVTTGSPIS
D(3) dopamine receptor, sequence (P35462 whole entry): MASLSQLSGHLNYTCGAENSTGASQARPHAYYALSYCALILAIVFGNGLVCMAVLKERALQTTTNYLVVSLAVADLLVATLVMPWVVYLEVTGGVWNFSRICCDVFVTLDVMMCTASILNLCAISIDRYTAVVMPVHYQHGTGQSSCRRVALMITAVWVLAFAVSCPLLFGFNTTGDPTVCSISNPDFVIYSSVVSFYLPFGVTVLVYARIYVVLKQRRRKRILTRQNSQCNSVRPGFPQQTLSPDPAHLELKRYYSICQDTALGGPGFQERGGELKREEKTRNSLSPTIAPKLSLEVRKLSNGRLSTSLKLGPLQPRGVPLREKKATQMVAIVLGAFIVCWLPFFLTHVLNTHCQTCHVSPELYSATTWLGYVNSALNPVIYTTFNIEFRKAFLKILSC

Row | SMILES | AC50 (Bile salt export pump) [µM] | AC50 [1] [µM] | AC50 (D(1A) dopamine receptor) [µM] | AC50 [2] [µM] | AC50 [3] [µM] | AC50 (Prothrombin) [µM] | AC50 [4] [µM] | AC50 (Mu-type opioid receptor) [µM] | AC50 [5] [µM] | AC50 (Acetylcholinesterase) [µM] | AC50 [6] [µM] | AC50 [7] [µM] | AC50 (Thromboxane A2 receptor [8]) [µM] | AC50 [9] [µM] | AC50 (D(3) dopamine receptor) [nM] | AC50 [10] [µM] | AC50 [11] [µM] | AC50 (Thromboxane A2 receptor [12]) [µM]
1 | CC[C@H]1OC(=O)[C@H](C)[C@@H](O[C@H]2C[C@@](C)(OC)[C@@H](O)[C@H](C)O2)[C@H](C)[C@@H](O[C@@H]2O[C@H](C)C[C@H](N(C)C)[C@H]2O)[C@](C)(O)C[C@@H](C)/C(=N\OCOCCOC)[C@H](C)[C@@H](O)[C@]1(C)O [ROXITHROMYCIN] | > 300 | – | – | – | – | – | – | – | – | – | – | – | – | – | – | – | – | –
2 | CC(C)N(CCCCOCC(=O)NS(C)(=O)=O)c1cnc(-c2ccccc2)c(-c2ccccc2)n1 [SELEXIPAG] | 5.7 | – | – | – | – | – | – | – | – | – | – | – | – | – | – | – | – | –
3 | CC(=O)S[C@@H]1CC2=CC(=O)CC[C@]2(C)[C@H]2CC[C@@]3(C)[C@@H](CC[C@@]34CCC(=O)O4)[C@H]12 [SPIRONOLACTONE] | 26 | – | – | – | – | – | – | – | – | – | – | – | – | – | – | – | – | –
4 | CCCCCCCCNC(C)C(O)c1ccc(SC(C)C)cc1 (stereo not drawn) [SULOCTIDIL] | 64 | 0.216 | 11.3 | 2.21 | 15.5 | > 30 | > 30 | 7.07 | > 30 | > 30 | > 30 | 6.75 | > 10 | 20.9 | 671 | 1.39 | > 30 | –
5 | Cn1c(=O)c2[nH]cnc2n(C)c1=O [THEOPHYLLINE] | > 300 | > 30 | > 30 | > 30 | > 30 | > 30 | > 30 | > 30 | – | > 30 | > 30 | > 30 | > 30 | – | > 30000 | > 30 | > 30 | > 30
6 | NCCc1ccc(O)cc1 [TYRAMINE] | > 300 | 7.88 | – | > 30 | > 3 | > 30 | > 30 | > 30 | > 30 | > 30 | > 30 | 22 | > 30 | > 30 | – | 22.2 | > 30 | > 30
7 | Cc1cc(CC(=O)O)n(C)c1C(=O)c1ccc(Cl)cc1 [ZOMEPIRAC] | 72 | – | – | – | – | – | – | – | – | – | – | – | – | – | – | – | – | –
